Measured values taken from PubChem BioAssay AID2060905 (Molecular Pharmacology Branch, DTP, NCI, 2025).
pIC50: −log10 of the molar value.

System: 282377-053-R-J1-PDC complex spheroid viability
Experiment: Anticancer human tumor 282377-053-R-J1-PDC patient-derived colon adenocarcinoma cell line growth inhibition [RAS]
Conditions: for pIC50: curve of first compound; for viability, T/C: stronger effect = lower value; active = viability on the fitted dose curve at most 10% of control; inactive = the rest
Method in brief: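 Agents were tested in combination matrices in half-log decrements from a top concentration at or near clinical Cmax (10 microM if undetermined). Targets were multi-cell spheroids of tumour lines plus HUVEC and MSC stromal cells.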

[1] = second compound 0.000949 µM, first compound 0.0316 µM
[2] = second compound 0.000949 µM, first compound 0.1 µM
[3] = second compound 0.000949 µM, first compound 0.316 µM
[4] = second compound 0.000949 µM, first compound 1 µM
[5] = second compound 0.000949 µM, first compound 3.16 µM
[6] = second compound 0.000949 µM, first compound 10 µM
[7] = second compound 0.003 µM, first compound 0.0316 µM
[8] = second compound 0.003 µM, first compound 0.1 µM
[9] = second compound 0.003 µM, first compound 0.316 µM
[10] = second compound 0.003 µM, first compound 1 µM
[11] = second compound 0.003 µM, first compound 3.16 µM
[12] = second compound 0.003 µM, first compound 10 µM
[13] = second compound 0.00949 µM, first compound 0.0316 µM
[14] = second compound 0.00949 µM, first compound 0.1 µM
[15] = second compound 0.00949 µM, first compound 0.316 µM
[16] = second compound 0.00949 µM, first compound 1 µM
[17] = second compound 0.00949 µM, first compound 3.16 µM
[18] = second compound 0.00949 µM, first compound 10 µM
[19] = second compound 0.03 µM, first compound 0.0316 µM
[20] = second compound 0.03 µM, first compound 0.1 µM
[21] = second compound 0.03 µM, first compound 0.316 µM
[22] = second compound 0.03 µM, first compound 1 µM
[23] = second compound 0.03 µM, first compound 3.16 µM
[24] = second compound 0.03 µM, first compound 10 µM
[25] = second compound 0.0949 µM, first compound 0.0316 µM
[26] = second compound 0.0949 µM, first compound 0.1 µM
[27] = second compound 0.0949 µM, first compound 0.316 µM
[28] = second compound 0.0949 µM, first compound 1 µM
[29] = second compound 0.0949 µM, first compound 3.16 µM
[30] = second compound 0.0949 µM, first compound 10 µM
[31] = second compound 0.3 µM, first compound 0.0316 µM
[32] = second compound 0.3 µM, first compound 0.1 µM
[33] = second compound 0.3 µM, first compound 0.316 µM
[34] = second compound 0.3 µM, first compound 1 µM
[35] = second compound 0.3 µM, first compound 3.16 µM
[36] = second compound 0.3 µM, first compound 10 µM
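Note: spheroids exposed to agents for seven days before readout.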
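Throughout, for viability, T/C: luminescence viability as percent of DMSO vehicle control wells.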

C[C@@H](NC(=O)c1ncnc(N)c1Cl)c1ncc(C(=O)Nc2cc(C(F)(F)F)c(Cl)cn2)s1 + CCn1c(-c2cccnc2C(C)OC)c2c3cc(ccc31)N1CCOC(CC(NC(=O)C(C(C)C)N(C)C(=O)C3(F)CCN(C(=O)C#CC(C)(C)N(C)C)CC3)C(=O)N3CCCC(N3)C(=O)OCC(C)(C)C2)C1
inactive: viability, T/C [1] 111% | viability, T/C [2] 118% | viability, T/C [3] 119% | viability, T/C [4] 90.6% | viability, T/C [5] 80.8% | viability, T/C [6] 64.5% | viability, T/C [7] 112% | viability, T/C [8] 92.7% | viability, T/C [9] 99.8% | viability, T/C [10] 82.1% | viability, T/C [11] 63.6% | viability, T/C [12] 57.3% | viability, T/C [13] 93.7% | viability, T/C [14] 89% | viability, T/C [15] 78.5% | viability, T/C [16] 109% | viability, T/C [17] 70.1% | viability, T/C [18] 58.9% | viability, T/C [19] 92.8% | viability, T/C [20] 117% | viability, T/C [21] 91% | viability, T/C [22] 84.3% | viability, T/C [23] 75.8% | viability, T/C [24] 81.1% | viability, T/C [25] 83.2% | viability, T/C [26] 93.6% | viability, T/C [27] 76.5% | viability, T/C [28] 73.1% | viability, T/C [29] 71.8% | viability, T/C [30] 71.3% | viability, T/C [31] 80.7% | viability, T/C [32] 99.1% | viability, T/C [33] 96.8% | viability, T/C [34] 86.2% | viability, T/C [35] 81.4% | viability, T/C [36] 66.9%
< 5.00: pIC50 (second compound 0.000949 µM) | pIC50 (second compound 0.003 µM) | pIC50 (second compound 0.00949 µM) | pIC50 (second compound 0.03 µM) | pIC50 (second compound 0.0949 µM) | pIC50 (second compound 0.3 µM)

Cc1nc(N2CCC3(CC2)COC(C)C3N)c(CO)nc1Sc1ccnc(N)c1Cl (centres undefined) + CCn1c(-c2cc(N3CCN(C)CC3)cnc2C(C)OC)c2c3cc(ccc31)-c1csc(n1)CC(NC(=O)C1CC1C)C(=O)N1CCCC(N1)C(=O)OCC(C)(C)C2
< 5.00: pIC50 (second compound 0.000949 µM) | pIC50 (second compound 0.003 µM) | pIC50 (second compound 0.00949 µM) | pIC50 (second compound 0.03 µM) | pIC50 (second compound 0.0949 µM) | pIC50 (second compound 0.3 µM)
inactive: viability, T/C [1] 88.7% | viability, T/C [2] 92.8% | viability, T/C [3] 89.5% | viability, T/C [4] 87.7% | viability, T/C [5] 76.8% | viability, T/C [6] 96.8% | viability, T/C [7] 80.6% | viability, T/C [8] 94.4% | viability, T/C [9] 78.7% | viability, T/C [10] 80.5% | viability, T/C [11] 94.8% | viability, T/C [12] 96.5% | viability, T/C [13] 82.7% | viability, T/C [14] 64.8% | viability, T/C [15] 74.6% | viability, T/C [16] 105% | viability, T/C [17] 74.5% | viability, T/C [18] 94% | viability, T/C [19] 80.6% | viability, T/C [20] 82.2% | viability, T/C [21] 90.1% | viability, T/C [22] 85.3% | viability, T/C [23] 88% | viability, T/C [24] 91.1% | viability, T/C [25] 69.7% | viability, T/C [26] 93.5% | viability, T/C [27] 88.9% | viability, T/C [28] 78.6% | viability, T/C [29] 95.5% | viability, T/C [30] 93.8% | viability, T/C [31] 80.5% | viability, T/C [32] 88.8% | viability, T/C [33] 91.1% | viability, T/C [34] 105% | viability, T/C [35] 112% | viability, T/C [36] 89.8%
